Where two headings read alike, the source gives them in different places.
How the values were obtained:
[1] = system: excised human skin (EHS); settings: female, 0.61 nmol/μL
[2] = 0.61 nmol/μL
[3] = system: EpiDerm-200-X reconstructed human epidermis (RhE)
[4] = not measured for this paper; no reference given; cited from earlier work
[5] = system: EpiDerm-200-X reconstructed human epidermis (RhE); test: In vitro permeation testing; settings: 5 mm orifice Franz cell, finite dose 6 nmol/cm^2

SMILES	6 h Cumulative Permeation [1] [nmol/cm^2]	time of peak flux [2] [h]	6 h Cumulative Permeation ([2]; 6 h) [nmol/cm^2]	vehicle effect on 6 h cumulative permeation [3]	time of mean peak flux ([3]; human, 0.61 nmol/μL) [h]	6 h Cumulative Permeation ([3]; human, 0.61 nmol/μL) [nmol/cm^2]	Log Kow (n-octanol-water partition coefficient) [4]	time of mean peak flux [5] [h]
Cn1c(=O)c2c(ncn2C)n(C)c1=O [caffeine]	0.97 ± 0.22	2	0.43 ± 0.03	statistically significant decrease	3	3.32 ± 0.33	−0.07	–
O=C(O)c1ccccc1O [salicylic acid]	0.18 ± 0.10	–	–	did not alter its permeation	–	0.32 ± 0.05	2.26	–
C[C@]12CC[C@H]3[C@@H](CCC4=CC(=O)CC[C@@]43C)[C@@H]1CC[C@@H]2O [testosterone]	–	–	–	–	–	–	–	2
